The term IC50 denotes the concentration that inhibits the measured activity by half. The term inhibition denotes the change of the read-out against control, counted positive when it falls.

Among the data in ChEMBL document CHEMBL4339246, “Iridal-Type Triterpenoids with a Cyclopentane Unit from the Rhizomes of Belamcanda chinensis” (J Nat Prod, 2019) are IC50 and inhibition values, retold here.

One experiment concerns BV-2. The experiment is described as follows: Antiinflammatory activity in mouse BV2 cells assessed as inhibition of LPS-induced nitric oxide production pretreated for 24 hrs followed by LPS-stimulation for 24 hrs by Griess assay. The experiment is classed as functional, cell-based. For orientation: The Griess reaction detects nitrite, a stable product of nitric oxide.
A further experiment relates to A549. Description: Cytotoxicity in human A549 cells assessed as reduction in cell viability incubated for 72 hrs by MTT assay. It counts as functional, cell-based. As to conditions: A549, 72 h. For orientation: Tetrazolium assays rely on reduction of a dye to a coloured formazan, in cell work by metabolically active cells.
For experiment [1], the target named is T1, Tyrosine-protein phosphatase non-receptor type 1 (Homo sapiens) (UniProt P18031).
T1 sequence (whole entry): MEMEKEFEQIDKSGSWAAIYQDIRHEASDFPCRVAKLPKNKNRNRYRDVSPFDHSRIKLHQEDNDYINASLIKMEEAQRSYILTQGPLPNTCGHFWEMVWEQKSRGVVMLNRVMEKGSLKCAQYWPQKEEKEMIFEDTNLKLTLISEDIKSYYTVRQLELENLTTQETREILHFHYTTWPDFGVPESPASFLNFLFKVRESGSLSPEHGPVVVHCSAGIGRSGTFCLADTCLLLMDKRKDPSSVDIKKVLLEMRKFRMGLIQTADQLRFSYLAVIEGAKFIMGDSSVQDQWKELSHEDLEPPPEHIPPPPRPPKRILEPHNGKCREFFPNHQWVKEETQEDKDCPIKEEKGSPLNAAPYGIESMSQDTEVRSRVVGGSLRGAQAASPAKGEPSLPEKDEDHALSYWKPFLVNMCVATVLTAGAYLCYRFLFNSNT
Description: Inhibition of recombinant human GST-tagged PTP1B expressed in expressed in Escherichia coli BL21 cells at 10 uM pre-incubated for 5 mins before pNPP substrate addition and further incubated for 30 mins relative to untreated control.

Another experiment concerns MCF7. Description: Cytotoxicity in human MCF7 cells assessed as reduction in cell viability incubated for 72 hrs by MTT assay. The note with it: MCF7, 72 h. The experiment is classed as functional, cell-based.
The next experiment relates to HCT-116. The experiment is described as follows: Cytotoxicity in human HCT116 cells assessed as reduction in cell viability incubated for 72 hrs by MTT assay. It counts as functional, cell-based. The note with it: HCT-116, 72 h.
A further experiment concerns BGC-823. Description: Cytotoxicity in human BGC823 cells assessed as reduction in cell viability incubated for 72 hrs by MTT assay. The experiment is classed as functional, cell-based. The note with it: BGC-823, 72 h.
The subject of a further experiment is HepG2. Description: Cytotoxicity in human HepG2 cells assessed as reduction in cell viability incubated for 72 hrs by MTT assay. The experiment is classed as functional, cell-based. As to conditions: HepG2, 72 h.

Molecules are shown by their SMILES.

On to `C=C(C)[C@H]1CC[C@@](C)(O)[C@@H]1/C=C/C(C)=C/[C@@H]1C[C@@]2([C@H](OC)O1)[C@H](CCCO)/C(=C(/C)C=O)CC[C@]2(C)O`, for which the IC50 with BV-2, in the experiment with A549, in the experiment on MCF7, with HCT-116, with BGC-823 and in the experiment on HepG2 was above 10 µM throughout. For the same compound, in experiment [1], the inhibition was -0.5%.
In the case of `C=C(C)[C@H]1CC[C@@](C)(O)[C@@H]1/C=C/C(C)=C/[C@@H]1C[C@@]23[C@H](OCCC[C@@H]2/C(=C(/C)C=O)CC[C@]3(C)O)O1`, the IC50 in the experiment with BV-2, in the experiment on A549, in the experiment with MCF7, in the experiment on HCT-116, in the experiment with BGC-823 and in the experiment on HepG2 was above 10 µM each time. For the same compound, the inhibition in experiment [1] was 24.8%.
In the case of `C=C(C)[C@H]1CC[C@@](C)(O)[C@@H]1/C=C/C(C)=C/[C@@H]1C[C@@]23[C@H](OCCC[C@@H]2/C(=C(\C)C=O)CC[C@]3(C)O)O1`, the IC50 in the experiment on BV-2, in the experiment on A549, with MCF7, in the experiment with HCT-116, in the experiment on BGC-823 and in the experiment with HepG2 was above 10 µM throughout. In experiment [1], the inhibition was found to be 26.4%.
As to `C=C(C)[C@H]1CC[C@@](C)(O)[C@@H]1/C=C/C(C)=C/[C@@H]1C[C@@]2([C@H](OC)O1)[C@H](CCCO)/C(=C(\C)C=O)CC[C@]2(C)O`, the IC50 in the experiment on BV-2, in the experiment with A549, with MCF7, with HCT-116, in the experiment on BGC-823 and in the experiment with HepG2 was above 10 µM throughout. The inhibition in experiment [1] turned out to be 15.2%.
Turning to `C=C(C)[C@@H]1CC[C@](C)(O)[C@H]1/C=C/C(C)=C/[C@@H]1C[C@@]2([C@H](OC)O1)[C@H](CCCO)/C(=C(/C)C=O)CC[C@]2(C)O`, the IC50 in the experiment on BV-2, in the experiment on A549, in the experiment on MCF7, in the experiment with HCT-116, with BGC-823 and in the experiment on HepG2 was above 10 µM each time. Besides, in experiment [1], the inhibition is 23.5%.
With `C=C(C)[C@@H]1CC[C@](C)(O)[C@H]1/C=C/C(C)=C/[C@@H]1C[C@@]23[C@H](OCCC[C@@H]2/C(=C(\C)C=O)CC[C@]3(C)O)O1`, the IC50 in the experiment with BV-2, in the experiment on A549, in the experiment with MCF7, with HCT-116, in the experiment on BGC-823 and in the experiment with HepG2 was above 10 µM each time. Moreover, the inhibition in experiment [1] came to 33.4%.
In the case of `C=C(C)[C@@H]1CC[C@](C)(O)[C@H]1/C=C/C(C)=C/[C@@H]1C[C@@]2([C@H](OC)O1)[C@H](CCCO)/C(=C(\C)C=O)CC[C@]2(C)O`, the IC50 in the experiment on BV-2, with A549, with MCF7, in the experiment on HCT-116, in the experiment with BGC-823 and in the experiment on HepG2 was above 10 µM throughout. Besides, the inhibition in experiment [1] was -1.8%.
As for `C=C(C)[C@@H]1CC[C@](C)(O)[C@H]1/C=C/C(C)=C/[C@@H]1C[C@@]23[C@H](OCCC[C@@H]2/C(=C(/C)C=O)CC[C@]3(C)O)O1`, the 50% inhibitory concentration (IC50) in the experiment on BV-2, in the experiment with A549, in the experiment on MCF7, in the experiment on HCT-116, with BGC-823 and with HepG2 was above 10 µM throughout. In addition, the inhibition in experiment [1] amounted to 16.5%.
Consider `C=C(C)[C@H]1CC[C@@](C)(O)[C@@H]1/C=C/C(C)=C/[C@@H]1C[C@@]2([C@H](OCC)O1)[C@H](CCCO)/C(=C(\C)C=O)CC[C@]2(C)O`, for which the IC50 in the experiment on BV-2, in the experiment with A549, in the experiment on MCF7, with HCT-116, in the experiment with BGC-823 and in the experiment on HepG2 was above 10 µM each time. Besides, in experiment [1], the inhibition was 32.9%.
